Test results published in paper PMC11249012 (Journal of Medicinal Chemistry, 2024).
Values after ≈ are worked out from the molar mass of the structure shown.

Key:
MDA-MB-231 TNBC cells = assay: RealTime-Glo cell viability assay, MDA-MB-231 cells; format: cell-based, human; settings: for cytotoxicity: 100 nM, alone or in combination; for IC50: Homo sapiens, RealTime-Glo, 24 h, read-out: IC50 (cytotoxicity)
[1] = tested on: macrophage infiltration into 4T1 tumors; assay: Immunofluorescence of macrophages in 4T1 tumors (F4/80, Arg1); format: in vivo, mouse; settings: Figure 8B
Method: Inhibition of PD-L1 and CD80/CD86 is directly achieved through the immune checkpoint blockade of their receptors using anti-CTLA-4 and anti-PD-1 antibodies.[69],[70]
Primary tumor tissues were fixed using 4% paraformaldehyde and subsequently dehydrated in sucrose solutions ranging from 10 to 30% for approximately 24 h each. The tissues were then embedded in base molds (Fisherbrand—#22363553) containing an optimal cutting temperature (OCT) compound (Fisher Healthcare—#4585). The tissue blocks were placed immediately on dry ice until the OCT compound solidified, and then they were stored at −80 °C. Prior to IF staining, sections of 5–10 μm were obtained using a Leica CM3050 S cryostat and SuperFrost Plus slides (Fisherbrand—#1255015). The tumor sections were then incubated with blocking buffer [phosphate-buffered saline containing 2% bovine serum albumin, 0.3% Triton X-100, 1% FBS, and 10% goat serum] for 1 h at RT. To detect macrophages in the TME, the sections were incubated with a pan-macrophage rat monoclonal antibody F4/80 (Abcam—#6640) diluted in blocking buffer overnight at 4 °C. Sixteen hours later, tissues were washed 3 times with 100 mM Tris–HCl and then incubated with a secondary goat antirat antibody (Invitrogen—#A11081) for 1 h at RT. […] Subsequently, 4′,6-diamidino-2-phenylindole (DAPI; Invitrogen—#D3571) was used to counterstain the nuclei for 5 min at RT. Finally, the slides were mounted using Fluoromount-G medium (Invitrogen—#00495802) and coverslips (Fisher Scientific—#12545E) and imaged with a Zeiss LSM 710 confocal microscope with ×20 objective. Quantification was carried out by QuPath software (version 0.3.2). F4/80+ macrophages and F4/80+ Arg1+ M2 macrophages were classified based on their fluorescence signal.

4T1 cells [2] = assay: Cytokine and chemokine gene expression in 4T1 cells in vitro; format: cell-based, mouse; settings: Figure 8A
4T1 tumors [3] = assay: 4T1 TNBC model in vivo (primary tumor and lung metastases); design: species or system mouse; settings: 4T1 model; for #Surface metastases (lung): 1,25D 0.25 μg/kg, SAHA 80 mg/kg, AM-193 0.2 mg/kg, ZG-126 high 5.0 mg/kg, vehicle 166
Method: As 4T1 cells are aggressively metastatic, we can also assess the antimetastatic activity in the same experiment. All treatments were well tolerated, and, as in the B16-F10 model, none induced weight loss or other signs of stress over the course of the experiment (Figure 7A). Treatments reduced the primary tumor burden to varying degrees.
The antimetastatic activity was determined by counting the number of surface lung metastases of duplicate samples using a stereomicroscope. […] This degree of efficacy is remarkable, as in previous experiments, DK-406 reduced the metastatic burden by ∼2-fold.[30]
(§1) Finally, mice were sacrificed, and lungs of 4T1-bearing mice were removed to evaluate the efficiency of treatments on lung metastases.

4T1 cells [4] = assay: RealTime-Glo cell viability assay, 4T1 cells; settings: for IC50: Mus musculus, 4T1, 24 h, read-out: IC50 (cytotoxicity)
in vivo = settings: BALB/c, mouse, ip
[5] = tested on: hyperacetylation of tubulin, H3K9 and H3K27; assay: Western blot of tubulin and histone H3 hyperacetylation in 4T1 cells; format: cell-based, mouse; settings: hybrids 10 μM, SAHA 100 nM, 6 h
Method: The potential for compounds as HDACi’s can be rapidly tested in cells in culture by monitoring the hyperacetylation of histone H3 and tubulin. H3 acetylation is controlled by multiple class I enzymes, and the class IIb enzyme HDAC6 regulates tubulin acetylation.[36]−[39] […] (Figure 4A).
Figure 4 Evidence for HDAC inhibition in 4T1 and 4TO7 TNBC cells. Western blots and quantification of triplicate biological replicates analyzing the effects of 1,25D (100 nM), SAHA (100 nM), and hybrids (10 μM) on hyperacetylation of tubulin (A,D), H3K9 (B,E), and H3K27 (C,F) in 4T1 (A–C) and 4TO7 cells (D–F).
After 6 h treatments, 4T1, 4T07, or B16-F10 cells were solubilized in lysis buffer (20 mM Tris, pH 8, 150 mM NaCl, 1% Triton X-100, 3.5 mM SDS, and 13 mM deoxycholic acid), and proteins were separated on a 4–15% Tris/glycine/SDS gel (Bio-Rad). Then, the proteins were transferred to a nitrocellulose membrane, followed by blocking in 5% skim milk in Tris-buffered saline (TBS, 1×) solution. After blocking, the membranes were incubated overnight at 4 °C with the primary antibodies against acetylated tubulin (Sigma-Aldrich—#T7451), tubulin (Sigma-Aldrich—#T9026), acetyl-histone H3(Lys9) (Merck Millipore—#07-352), acetyl-histone H3 (Lys27) (Abcam—#ab4729), total histone H3 (Cell Signaling Technology (CST)—#3638), and GAPDH (Abcam—#ab8245). Then, the membranes were incubated with antimouse (CST—#7076) or antirabbit (CST—#7074) IgG HRP-linked secondary antibodies at recommended concentrations. Finally, signals were detected using Clarity ECL substrates (Bio-Rad) and a ChemiDoc Imaging System. Changes in protein levels were quantified relative to control using Image Lab software (version 6.0.1) after normalization to GAPDH. Western blot experiments were carried out three times.

[6] = tested on: hyperacetylation of tubulin, H3K9 and H3K27; assay: Western blot of tubulin and histone H3 hyperacetylation in B16-F10 cells; format: cell-based, mouse; settings: SAHA 100 nM
Text: B16-F10 cells are responsive to 1,25D analogues[45] and HDACi[46],[47] and are therefore widely used in preclinical studies of melanoma solid tumor growth and metastases.[48] Although curable when treated early, melanoma is fatal when invasive. The American Cancer Society projected 97,610 new invasive melanoma cases in the US in 2023 and 7990 deaths. Current treatment options include chemotherapy, surgery, immunotherapy, or single agents targeting mutated genes such as B-RAF or C-KIT.[49]
After 6 h treatments, 4T1, 4T07, or B16-F10 cells were solubilized in lysis buffer (20 mM Tris, pH 8, 150 mM NaCl, 1% Triton X-100, 3.5 mM SDS, and 13 mM deoxycholic acid), and proteins were separated on a 4–15% Tris/glycine/SDS gel (Bio-Rad). Then, the proteins were transferred to a nitrocellulose membrane, followed by blocking in 5% skim milk in Tris-buffered saline (TBS, 1×) solution. […] Finally, signals were detected using Clarity ECL substrates (Bio-Rad) and a ChemiDoc Imaging System. Changes in protein levels were quantified relative to control using Image Lab software (version 6.0.1) after normalization to GAPDH. […]
Figure S2. […] Quantification of the analyses of hyperacetylation in B16-F10 cells of tubulin, H3K9 and H3K27. […]

Solubility = format: physicochemical
4T1 tumors [7] = tested on: 4T1 tumors; design: method as in PMID 1540948; settings: 4T1 model, previous experiments ref 30; cited from earlier work
VDR = target: T1, VDR (Mus musculus, UniProt P48281); assay: Cyp24a1 gene induction (VDR agonism) in 4T1 cells; format: cell-based; design: endogenous in cells; settings: Figure 2A
T1 sequence (P48281 1-422): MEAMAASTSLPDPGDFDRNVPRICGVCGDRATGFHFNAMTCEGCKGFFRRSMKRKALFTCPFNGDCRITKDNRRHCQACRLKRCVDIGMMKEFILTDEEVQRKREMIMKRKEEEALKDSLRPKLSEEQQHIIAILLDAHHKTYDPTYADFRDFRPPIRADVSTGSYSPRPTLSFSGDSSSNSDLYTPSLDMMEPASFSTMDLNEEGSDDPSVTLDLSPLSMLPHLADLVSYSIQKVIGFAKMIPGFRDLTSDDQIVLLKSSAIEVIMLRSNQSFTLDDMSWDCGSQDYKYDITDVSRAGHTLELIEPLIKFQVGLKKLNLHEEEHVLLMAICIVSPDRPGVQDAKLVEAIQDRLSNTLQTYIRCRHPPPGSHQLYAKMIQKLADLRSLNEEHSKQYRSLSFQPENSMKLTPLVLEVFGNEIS
Method: We first examined the effect of the modified structures on solubility. […] The bifunctionality of ZG compounds was then analyzed in a battery of assays. VDR agonism was determined by evaluating the induction of the Cyp24a1 gene. Cyp24a1 encodes the enzyme that initiates the catabolic degradation of 1,25D in a negative-feedback loop, and its gene transcription is exquisitely sensitive to the presence of the agonist-bound VDR. Agonism was assessed initially in mouse 4T1 cells and in related 4TO7 TNBC cells (Figure 2A,B). […] Apparent potencies were lower than those of DK-406 and AM-193.
RNA extraction was performed with the FavorPrep tissue total RNA mini kit (FAVORGEN Biotech Corporation FATRK 001) as per manufacturer’s instructions. cDNA was obtained from 1 μg of RNA using 5× All-in-One RT MasterMix (Applied Biological Materials (abm) Inc. G485) and diluted 5 times. qPCR was performed with BrightGreen 2× q-PCR MasterMix (abm MasterMix-LR-XL) on a Roche LightCycler 96 system. Expression of targeted genes was normalized to 18 s.

B16-F10 tumors = assay: B16-F10 melanoma model in vivo; design: species or system mouse; settings: C57BL/6 mice; ZG-126 5 mg/kg, AM-193 0.2 mg/kg, 1,25D 0.25 μg/kg, SAHA 80 mg/kg, gemcitabine 50 mg/kg
Method: We were then interested in comparing the efficacy of ZG compounds and other hybrids in tumor models in vivo. We focused initially on the B16-F10 melanoma which is syngeneic with C57BL/6 mice. The efficacy of ZG-126 in vivo in this model was tested in two experiments. […] In a second experiment, we compared the antitumor efficacy of hybrids at ∼0.5 MTD doses. […] All treatments were well tolerated, and body weights were unaffected (Figure 6C).
as §1

| Compound | #Surface metastases (lung) (4T1 tumors [3]) | IC50 (MDA-MB-231 TNBC cells) [nM] | IC50 (4T1 cells [4]) [µM] | MTD (in vivo) [mg/kg] | solubility (Solubility) [µg/mL] | also measured |
| --- | --- | --- | --- | --- | --- | --- |
| C=C1/C(=C\C=C2/CCC[C@]3(C)[C@@H]([C@H](C)CCCC(C)(C)O)CC[C@@H]23)C[C@@H](O)C[C@@H]1O [1,25D, 1,25-dihydroxyvitamin D] | 114 |  |  |  |  | cytotoxicity (MDA-MB-231 TNBC cells): did not display significant cytotoxicity; total macrophage infiltration into 4T1 tumors (F4/80 staining) [1]: significantly reduced; expression of Ccl2, Ccl5, Ccl20, and Cxcl10 (4T1 cells [2]): inhibited; expression of the gene encoding interleukin-1α (4T1 cells [2]): induced |
| CCC(CC)(c1ccc(OCCCCCC(=O)NO)cc1)c1ccc(OCC(O)C(C)(C)C)c(C)n1 (centres unmarked) [AM-193, reference compound] | 89 | 500 | 0.74 | 0.5 |  | effect on primary tumor burden (4T1 tumors [3]; AM-193 0.2 mg/kg compared with ZG-126 5 mg/kg): less efficacious than the high dose of ZG-126; tubulin acetylation [5]: highly efficacious inducer of tubulin acetylation |
| CCC(CC)(c1ccc(C(=O)NCCCCCC(=O)NO)cc1)c1ccc(OCC(O)C(C)(C)C)c(C)c1 (centres unmarked) [DK-406, reference compound] |  | 2430 | 9.08 | 1 | 4.40 (≈ 8.35 µM) | tubulin acetylation and histone hyperacetylation [6]: induced very high levels of tubulin acetylation and histone hyperacetylation; reduction of metastatic burden (4T1 tumors [7]): ~2 fold |
| O=C(CCCCCCC(=O)Nc1ccccc1)NO [SAHA, reference compound] | 139 |  |  |  |  | cytotoxicity (MDA-MB-231 TNBC cells): did not display significant cytotoxicity; cytotoxicity (4T1 cells [4]; 4T1 cells, 100 nM, alone or in combination): did not display significant cytotoxicity; total macrophage infiltration into 4T1 tumors (F4/80 staining) [1]: not |
| CCC(CC)(c1ccc(C(=O)NCCCCCC(=O)NO)cc1)c1ccc(OCC(O)C(C)(C)C)c(C)n1 (centres unmarked) [ZG-102, 4-(3-(5-(2-Hydroxy-3,3-dimethylbutoxy)-6-methylpyridin-2-yl)pentan-3-yl)-N-(6-(hydroxyamino)-6-oxohexyl)benzamide] |  | 2180 | 55.8 | 10 | 4.45 (≈ 8.43 µM) | Cyp24a1 induction (VDR): did not appear to be a full agonist |
| CCC(CC)(c1ccc(C(=O)NCCCC(=O)NO)cc1)c1ccc(OCC(O)C(C)(C)C)c(C)n1 (centres unmarked) [ZG-132, 4-(3-(5-(2-Hydroxy-3,3-dimethylbutoxy)-6-methylpyridin-2-yl)pentan-3-yl)-N-(4-(hydroxyamino)-4-oxobutyl)benzamide] |  | 950 | 4.55 | 10 | 10.71 (≈ 21.4 µM) | Cyp24a1 induction (VDR): did not appear to be a full agonist |
| Nc1ccn([C@@H]2O[C@H](CO)[C@@H](O)C2(F)F)c(=O)n1 [gemcitabine, reference compound] |  |  |  |  |  | B16-F10 tumor burden (B16-F10 tumors): statistically significant reduction in tumor burden |
